Assay results taken from ChEMBL document CHEMBL1201862, “PubChem BioAssay data set” (2004).
Several values for one entry are separate records, joined by “and”; a condition that tells them apart may be missing. Equal entries are not always repeated. Activity calls are given as the source filed them.

Columns and labels:
Streptokinase A = target: T1, Streptokinase A (Streptococcus pyogenes serotype M1, UniProt P10520); experiment: S. pyogenes streptokinase expression inhibitors, potency, dose response, plasminogen activation absorbance, OD405 (AID 1914); type: functional, Streptococcus pyogenes M1 GAS;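 note: secreted streptokinase activity via plasminogen activation per viability signal from cell pellet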
T1 sequence (P10520 whole entry): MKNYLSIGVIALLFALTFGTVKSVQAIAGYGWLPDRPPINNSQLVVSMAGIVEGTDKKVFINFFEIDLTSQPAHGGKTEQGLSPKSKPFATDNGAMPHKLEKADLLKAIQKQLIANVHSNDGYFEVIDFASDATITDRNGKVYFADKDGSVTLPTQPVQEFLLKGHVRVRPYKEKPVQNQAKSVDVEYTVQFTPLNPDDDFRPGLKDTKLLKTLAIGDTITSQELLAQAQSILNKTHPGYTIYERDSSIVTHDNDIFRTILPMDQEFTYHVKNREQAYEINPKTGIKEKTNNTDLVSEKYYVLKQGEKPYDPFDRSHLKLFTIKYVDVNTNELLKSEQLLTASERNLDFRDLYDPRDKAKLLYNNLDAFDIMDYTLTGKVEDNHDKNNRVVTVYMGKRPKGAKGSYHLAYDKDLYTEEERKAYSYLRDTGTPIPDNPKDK

[1] = system: Streptococcus sp. 'group A'; experiment: growth inhibition of control SK(-) GAS strain, dose response, counter-screen for streptokinase expression inhibitor project, luminescence, kanamycin, BacTiterGlo, confirmation (AID 1900); type: functional, organism-based
Streptococcus = experiment: Group A Streptococcus viability loss, dose response, counter-screen for streptokinase expression inhibitor project, luminescence, BacTiterGlo (AID 1915); type: functional, organism-based;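 note: potency for reduction of bacterial viability or growth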
[2] = inhibitors of intracellular T. cruzi replication, confirmation, NIH3T3 host cells, beta-gal luminescence (AID 2044); type: functional, cell-based;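 note: intracellular parasites grown in NIH/3T3 mouse fibroblasts as host cells; luminescent beta-galactosidase reporter signal from transgenic T. cruzi replicating inside host cells; inhibitors lower the luminescence signal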
[3] = cytotoxicity toward NIH3T3 fibroblasts, dose response, counter-screen, cell-based, ATP luminescence, mouse fibroblasts (AID 2010); type: functional;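 note: cells exposed to compound for about 90 hours before reading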
Cytochrome P450 2C19 = Cytochrome P450 2C19 (Homo sapiens, UniProt P33261); experiment: Cytochrome panel assay with activity outcomes. Panel member name: p450-cyp2c19 Compounds with AC50 equal or less than 10 uM are considered active; type: functional
Chain of Cytochrome P450 2C19 (P33261 whole entry): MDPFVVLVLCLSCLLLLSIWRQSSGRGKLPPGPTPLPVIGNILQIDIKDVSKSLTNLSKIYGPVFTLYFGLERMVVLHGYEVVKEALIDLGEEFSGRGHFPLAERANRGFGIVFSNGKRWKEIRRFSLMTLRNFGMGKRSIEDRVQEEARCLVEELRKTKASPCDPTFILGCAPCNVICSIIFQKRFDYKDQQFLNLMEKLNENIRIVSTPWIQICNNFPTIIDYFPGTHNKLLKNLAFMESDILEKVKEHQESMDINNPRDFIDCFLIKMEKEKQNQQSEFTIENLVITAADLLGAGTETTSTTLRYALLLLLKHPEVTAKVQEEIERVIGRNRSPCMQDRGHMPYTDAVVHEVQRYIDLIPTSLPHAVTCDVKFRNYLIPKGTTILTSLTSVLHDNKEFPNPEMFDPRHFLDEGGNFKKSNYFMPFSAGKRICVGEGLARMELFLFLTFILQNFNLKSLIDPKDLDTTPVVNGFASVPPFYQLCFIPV

Cytochrome P450 3A4 = Cytochrome P450 3A4 (Homo sapiens, UniProt P08684);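 note: CYP3A4 tested as one member of a cytochrome P450 panel screen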
Chain of Cytochrome P450 3A4 (P08684 whole entry): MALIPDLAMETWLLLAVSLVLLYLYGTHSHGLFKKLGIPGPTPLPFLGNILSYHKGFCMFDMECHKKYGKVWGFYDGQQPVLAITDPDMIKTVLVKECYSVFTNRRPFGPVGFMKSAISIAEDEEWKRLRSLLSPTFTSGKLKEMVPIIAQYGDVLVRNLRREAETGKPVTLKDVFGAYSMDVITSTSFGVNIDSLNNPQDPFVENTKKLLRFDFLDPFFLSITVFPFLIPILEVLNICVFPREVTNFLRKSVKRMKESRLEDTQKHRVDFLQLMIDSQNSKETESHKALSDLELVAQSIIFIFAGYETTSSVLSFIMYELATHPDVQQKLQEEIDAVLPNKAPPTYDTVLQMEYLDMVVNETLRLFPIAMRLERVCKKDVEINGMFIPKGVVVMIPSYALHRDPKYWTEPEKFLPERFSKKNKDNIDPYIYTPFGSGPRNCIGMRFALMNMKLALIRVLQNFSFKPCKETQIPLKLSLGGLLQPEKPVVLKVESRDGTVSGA

Cytochrome P450 1A2 = target: T2, Cytochrome P450 1A2 (Homo sapiens, UniProt P05177);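 note: PubChem cytochrome P450 panel assay, CYP1A2 panel member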
T2 sequence (P05177 whole entry): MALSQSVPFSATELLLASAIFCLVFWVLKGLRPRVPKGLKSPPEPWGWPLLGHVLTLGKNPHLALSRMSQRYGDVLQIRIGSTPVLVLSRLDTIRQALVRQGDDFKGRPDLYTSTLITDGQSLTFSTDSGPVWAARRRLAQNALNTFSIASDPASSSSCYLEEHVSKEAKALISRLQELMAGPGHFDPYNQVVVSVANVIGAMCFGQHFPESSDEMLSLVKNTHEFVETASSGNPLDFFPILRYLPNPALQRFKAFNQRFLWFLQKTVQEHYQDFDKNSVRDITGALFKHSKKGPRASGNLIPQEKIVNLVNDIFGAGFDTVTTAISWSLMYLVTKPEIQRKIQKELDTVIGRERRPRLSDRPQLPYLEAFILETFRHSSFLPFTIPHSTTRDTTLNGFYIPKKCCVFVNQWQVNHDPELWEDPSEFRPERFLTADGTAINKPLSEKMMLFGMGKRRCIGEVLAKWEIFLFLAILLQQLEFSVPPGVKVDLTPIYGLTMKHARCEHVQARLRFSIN

Brc1ccc(Nc2ncnc3[nH]ncc23)cc1
EC50 (Streptokinase A): > 150 µM (not active)
EC50 [1]: 5.77 µM (active)
EC50 (Streptococcus): 143 µM (active)

O=C(NC1CCN(Cc2ccccc2)CC1)c1ccc2c(c1)nc(O)n2Cc1ccc(F)cc1
EC50 [2]: 0.485 µM (active)
EC50 [3]: > 60 µM (inconclusive)

O=S(=O)(Cc1nnnn1-c1ccccc1)c1ccc(F)cc1
EC50 (Streptokinase A): > 150 µM (not active)
EC50 [1]: > 150 µM (not active)
EC50 (Streptococcus): > 150 µM (not active)

COc1cc(-c2nc(-c3ccc4c(c3)-c3ccccc3S4(=O)=O)c(-c3ccccc3)[nH]2)cc(OC)c1OC
EC50 [2]: 1.81 µM (active)
EC50 [3]: > 60 µM (not active)

CCSC1=NC2(CCCCC2)Nc2sc3c(c21)CCCC3
EC50 [2]: 2.23 µM (active)
EC50 [3]: 20.6 µM (active)

CC(=O)Nc1ccc(C2C(=O)c3ccccc3C2=O)cc1
EC50 (Streptokinase A): > 150 µM (not active)
EC50 [1]: 31.3 µM (active)
EC50 (Streptococcus): > 150 µM (not active)

Cc1ccc(C)c(N(CC(=O)NC2CCCC2)C(=O)c2cc3cc4cccc(C)c4nc3s2)c1
AC50 (Cytochrome P450 2C19; read-out: AC50): 6.31 µM (inconclusive)
AC50 (Cytochrome P450 3A4): 2.51 µM (inconclusive)

COc1ccc(C(CCN)c2ccc3c(c2)OCO3)cc1 (stereo not given)
EC50 [2]: 7.31 µM (active)
EC50 [3]: > 60 µM (not active)

O=C(CSc1nnc(NC(=O)c2ccccc2[N+](=O)[O-])s1)NC1CCCC1
EC50 (Streptokinase A): > 150 µM (not active)
EC50 [1]: > 150 µM (not active)
EC50 (Streptococcus): > 150 µM (not active)

Cc1ccc(NC(=O)C2CC2C)cc1S(=O)(=O)N1CCOCC1 (stereo not given)
EC50 [2]: 1.91 µM (active)
EC50 [3]: > 30 µM (not active)

Oc1cc2c(c(Cl)c1O)CCNC[C@H]2c1ccccc1
AC50 (Cytochrome P450 3A4): 39.8 µM (inconclusive) and 12.6 µM (inconclusive)

CN(C)Cc1ccccc1-c1cc(NCc2cccs2)ncn1
AC50 (Cytochrome P450 3A4): 10 µM (inconclusive)

COc1ccccc1CCNC(=O)C(=O)c1cn(CC(=O)N2CCCC2)c2ccccc12
EC50 (Streptokinase A): > 150 µM (not active)
EC50 [1]: > 150 µM (not active)
EC50 (Streptococcus): > 150 µM (not active)

Cc1cc(C(F)F)n2nc(C(=O)Nc3cccnc3Cl)nc2n1
AC50 (Cytochrome P450 2C19): inconclusive

Cc1oc2c(C)c(O)ccc2c(=O)c1-c1ccc2ccccc2n1
AC50 (Cytochrome P450 2C19; read-out: AC50): 2.82 µM (inconclusive)
AC50 (Cytochrome P450 3A4): 7.94 µM (inconclusive)

Cc1[nH]c2ccccc2c1C(=O)COC(=O)c1ccc2c(=O)n3c(nc2c1)CCC3
EC50 [1]: 1.74 µM (active)
EC50 (Streptococcus): 1.99 µM (active)

COc1ccc(C2CC(c3ccc(Br)cc3)=NN2C(=O)CSC2=NN3CCCC(=O)N=C3S2)cc1 (stereo not given)
EC50 [2]: 4.07 µM (active)
EC50 [3]: > 60 µM (not active)

COC(=O)[C@@]1(Cc2ccc(OC)cc2)[C@H]2c3cc(C(=O)N4CCCC4)n(Cc4ccc(OC)c(OC)c4)c3C[C@H]2CN1C(=O)c1ccccc1
AC50 (Cytochrome P450 2C19; read-out: AC50): 15.8 µM (inconclusive)

COc1cc(C(=O)Nc2nc(-c3ccc(C)cc3)cs2)ccc1OCC(=O)N1CCOCC1
EC50 [2]: 2.04 µM (active)
EC50 [3]: > 60 µM (inconclusive)

CC(C)NC(=O)N1CCC2(CC1)CCN(C(=O)c1ccncc1)CC2
AC50 (Cytochrome P450 3A4): 25.1 µM (inconclusive)

CC(=O)NCCNc1ncnc2ccc(-c3ccccc3C#N)cc12
AC50 (Cytochrome P450 2C19; read-out: AC50): 10 µM (inconclusive)
AC50 (Cytochrome P450 3A4): 25.1 µM (inconclusive)

CN(C)c1ncc2nc(CCc3ccccc3)c(=O)n(CCC#N)c2n1
AC50 (Cytochrome P450 3A4): 20 µM (inconclusive)

CCOC(=O)N1CCN(C(=O)c2cc3n(n2)C(C(F)(F)F)CC(c2ccc4c(c2)OCO4)N3)CC1 (stereo not given)
EC50 (Streptokinase A): > 150 µM (not active)
EC50 [1]: 62.1 µM (active)
EC50 (Streptococcus): > 150 µM (not active)

CC(C)C[C@H](NC(=O)c1[nH]cnc1C(=O)Nc1ccccc1)C(=O)OC(C)(C)C
EC50 [1]: 3.21 µM (active)
EC50 (Streptococcus): 7.19 µM (active)

O=[N+]([O-])c1nn(-c2ccccc2)[n+]([O-])c1N1CCN(c2ccccc2F)CC1
EC50 [2]: 0.458 µM (active)
EC50 [3]: > 60 µM (not active)

Cc1ccc(CNC(=O)COC(=O)c2cnccn2)cc1
AC50 (Cytochrome P450 2C19): inconclusive
AC50 (Cytochrome P450 3A4): 17.8 µM (inconclusive)

CC(C)=CCC/C(C)=C/CO/N=C1/C[C@@H](O)[C@@H](O)[C@@H]2[C@@H]3C(=O)N(Cc4ccccc4)C(=O)[C@H]3CC[C@H]12
AC50 (Cytochrome P450 2C19; read-out: AC50): 0.0631 µM (inconclusive)

CCc1ccc(CNc2ccc3c(c2)ncn3C(C)(C)C)cc1
EC50 (Streptokinase A): > 150 µM (not active)
EC50 [1]: 10.7 µM (active)
EC50 (Streptococcus): > 150 µM (not active)

CCOC(=O)c1c(NC(=O)CN2CCCCC2)sc2c1CCN(C(=O)OCC)C2
EC50 [2]: 1.13 µM (active)
EC50 [3]: > 60 µM (not active)

Cc1cccc(NC(=O)NCc2ccc3c(c2)OCO3)c1
EC50 (Streptokinase A): > 150 µM (not active)
EC50 [1]: > 150 µM (not active)
EC50 (Streptococcus): > 150 µM (not active)

CC(C)Oc1cccc(C(=O)NC(=S)N2CCN(c3ccc(C(F)(F)F)cc3[N+](=O)[O-])CC2)c1
AC50 (Cytochrome P450 3A4): 14.1 µM (inconclusive)

CNc1ncnc2ccc(-c3ccccc3C#N)cc12
AC50 (Cytochrome P450 3A4): 12.6 µM (inconclusive)

O=C(Nc1ccc(N2CCCCC2)c(Cl)c1)c1ccc(N2CCOCC2)c([N+](=O)[O-])c1
EC50 [2]: 1.06 µM (active)
EC50 [3]: > 60 µM (not active)

O=c1cnc2cnc(Oc3ccccc3)nc2n1Cc1ccc(F)cc1
AC50 (Cytochrome P450 3A4): 20 µM (inconclusive)

COCC1CCCCN1C(=O)c1ccc2oc(CCCc3ccccc3)nc2c1 (stereo not given)
EC50 (Streptokinase A): > 150 µM (not active)
EC50 [1]: 98.8 µM (active)
EC50 (Streptococcus): > 150 µM (not active)

COc1ccc(C(=O)c2ccc(N3CCN(C4CC(=O)NC4=O)CC3)cc2)cc1F (stereo not given)
EC50 (Streptokinase A): > 150 µM (not active)
EC50 [1]: 2.99 µM (active)
EC50 (Streptococcus): 33.3 µM (active)

S=C(Nc1ccccc1Cl)N(Cc1ccccc1)Cc1cccnc1
EC50 [2]: 0.992 µM (active)
EC50 [3]: > 60 µM (not active)

COc1ccc(CC(=O)NCC2CCCN(Cc3cc(OC)cc(OC)c3)C2)cc1 (stereo not given)
EC50 [2]: 0.197 µM (active)
EC50 [3]: > 30 µM (not active)

COc1ccc(N(CC(=O)NCCSCc2cccc(Cl)c2)S(C)(=O)=O)cc1Cl
EC50 (Streptokinase A): 23.2 µM (active)
EC50 [1]: 13 µM (active)
EC50 (Streptococcus): 79.6 µM (active)

O=C(NC(=S)NNC(=O)c1cccs1)c1ccco1
EC50 (Streptokinase A): > 150 µM (not active)
EC50 [1]: 7.02 µM (active)
EC50 (Streptococcus): 36.2 µM (active)

CCCOc1ccc(-c2nn(-c3ccccc3)cc2/C=C2\SC(N)=NC2=O)cc1C
EC50 [2]: 1.04 µM (active)
EC50 [3]: > 60 µM (not active)

COc1cc(-c2nc3ccccn3c2NCc2ccccc2)ccc1SC1CCCCC1
EC50 [2]: 0.954 µM (active)
EC50 [3]: > 60 µM (not active)

Cc1nc(N2CCN(c3ccccc3O)CC2)c2c(-c3ccccc3)csc2n1
EC50 (Streptokinase A): 34.4 µM (active)
EC50 [1]: 15.1 µM (active)
EC50 (Streptococcus): > 150 µM (not active)

CC(CCc1ccccc1)NC(=O)/C=C/c1ccccc1 (stereo not given)
AC50 (Cytochrome P450 3A4): 25.1 µM (inconclusive)

N#Cc1ccc(CN2CCC3(CC2)CCN(S(=O)(=O)c2ccccc2)CC3)cc1
AC50 (Cytochrome P450 3A4): 20 µM (inconclusive)

CC(C)=NO[C@@H](C)CN1CCCCc2nc(C)c(C)cc21
AC50 (Cytochrome P450 3A4): 3.98 µM (inconclusive)

COC(=O)c1ccc(Oc2nc3ccccc3n3c(C)nnc23)cc1
EC50 (Streptokinase A): > 150 µM (not active)
EC50 [1]: 3.82 µM (active)
EC50 (Streptococcus): 61.2 µM (active)

Cc1ccc(C(=O)NCc2ccc(N3CCN(C(=O)OC(C)(C)C)CC3)cc2)cc1
AC50 (Cytochrome P450 2C19; read-out: AC50): 14.1 µM (inconclusive)

Cc1cc(C)cc(C(=O)N2CCC(CCC(=O)NC3CC3)CC2)c1
EC50 (Streptokinase A): > 150 µM (not active)
EC50 [1]: > 150 µM (not active)
EC50 (Streptococcus): > 150 µM (not active)

O=C(O)CCCc1ccc2ccccc2c1
AC50 (Cytochrome P450 1A2): 3.16 µM (inconclusive)

CO/C(O)=C1\C(C)=NC2=C(C(=O)c3ccccc32)C1c1ccc(-c2ccc(C(=O)O)cc2)o1 (stereo not given)
EC50 (Streptokinase A): > 150 µM (not active)
EC50 [1]: 3.77 µM (active)
EC50 (Streptococcus): 69 µM (active)

COc1cc(COc2cc(N)c(Cl)cc2C(=O)CCC2CCN(CCNS(C)(=O)=O)CC2)cc(OC)c1
AC50 (Cytochrome P450 2C19; read-out: AC50): 15.8 µM (inconclusive)

CC(C)=CCC/C(C)=C/CC/C(C)=C/CSc1ccccc1C(=O)O [SALIRASIB]
AC50 (Cytochrome P450 3A4): 31.6 µM (inconclusive)
